These results are taken from article PMC9721423, “Novel benzo chromene derivatives: design, synthesis, molecular docking, cell cycle arrest, and apoptosis induction in human acute myeloid leukemia HL-60 cells” (Journal of Enzyme Inhibition and Medicinal Chemistry, 2022).

What all share (assay): cells
What all share (parameters): species or system NCI-60 human tumour cell lines; NCI-60 five-dose growth inhibition screen, sulforhodamine B protein stain

Test [1] relates to SN12C. The conditions noted are these: Homo sapiens, SN12C, 48 h. The protocol:
(§1) All the newly synthesised 28 compounds were selected for single-dose testing. NCI60 single-dose testing is performed in all 60 cell lines according to the reported assay (National Cancer Institute, https://dtp.cancer.gov/) (National Cancer Institute https://dtp.cancer.gov/discovery_development/nci-60/), compounds were dissolved in DMSO: glycerol […] and are stored in a −70 °C freezer. The prepared compounds were added at single concentration of 1 0^−5 M and the culture was incubated for 48 h. End point determinations were made with a protein binding dye, sulforhodamine B (SRB). The human tumour cell lines were derived from nine different cancer types: leukaemia, melanoma, lung, colon, central nervous system (CNS), ovarian, renal, prostate, and breast cancers. Dose–response curves for these compounds were created by plotting the percentage growth (PGs or % growth) against log10 of the corresponding concentration for every cell line. Three response parameters, GI50 (Median Growth Inhibitory Concentration), TGI (Total Growth Inhibitory Concentration), and LC50 (Median Lethal Concentration) were calculated[54] (National Cancer Institute, https://dtp.cancer.gov/discovery_development/nci-60/) (National Cancer Institute, https://dtp.cancer.gov/)[55] for compounds 5a and 6a. […] Furthermore, the average sensitivity of all cell lines towards the compound is termed as the full panel mean graph midpoints (MG-MID). The ratio obtained by dividing the full panel mean graph midpoints (MG-MID) concentration by the individual subpanel MG-MID concentrations (obtained as the average sensitivity of all cell lines of a particular subpanel towards the test compound) is considered a criterion for the compound selectivity towards the corresponding cell line. Ratios greater than 6 indicate high selectivity while ratios between 3 and 6 refer to moderate selectivity whereas compounds not meeting either of these criteria were rated non-selective[56].

Test [2] has as its system NCI-H522. The conditions noted are these: Homo sapiens, NCI-H522, 48 h. Here is the method: as §1
In test [3] the test system is 786-0. The settings on record: Homo sapiens, 786-0, 48 h. The protocol: as §1
Test [4] concerns SR. The conditions noted are these: Homo sapiens, SR, 48 h. The protocol: as §1
Test [5] has as its system MDA-MB-468. The conditions noted are these: Homo sapiens, MDA-MB-468, 48 h. Here is the method:
as §1

Test [6] relates to UACC-62. The conditions noted are these: Homo sapiens, UACC-62, 48 h. The protocol: as §1
Test [7] relates to MCF7. The conditions noted are these: Homo sapiens, MCF7, 48 h. Here is the method:
as §1

Test [8] relates to HT29. The conditions noted are these: Homo sapiens, HT-29, 48 h. The protocol: as §1
In test [9] the test system is M14. The settings on record: Homo sapiens, M14, 48 h. The protocol: as §1
Test [10] deals with NCI-H322M. The settings on record: Homo sapiens, NCI-H322M, 48 h. Here is the method:
as §1

Test [11] has as its system MOLT-4. The settings on record: Homo sapiens, MOLT-4, 48 h. The protocol: as §1
Test [12] concerns SK-MEL-2. The conditions noted are these: Homo sapiens, SK-MEL-2, 48 h. Here is the method: as §1
Test [13] has as its system HOP-92. The settings on record: Homo sapiens, HOP-92, 48 h. The protocol:
as §1

Test [14] deals with K-562. The conditions noted are these: Homo sapiens, K562, 48 h. The protocol:
as §1

For test [15], the system named is SF-539. The conditions noted are these: Homo sapiens, SF-539, 48 h. Here is the method:
as §1

Test [16] has as its system NCI-H226. The conditions noted are these: Homo sapiens, NCI-H226, 48 h. The protocol: as §1
Test [17] relates to SF-268. The settings on record: Homo sapiens, SF-268, 48 h. The protocol:
as §1

Structures are written as SMILES. Read-outs that look alike come from different tables or passages of the source.

Regarding `CC(=O)NC1=C(C#N)C(c2ccccc2)c2ccc3ccccc3c2O1` (stereo not shown) [6a, N-(3-Cyano-4-phenyl-4H-benzo[h]chromen-2-yl)acetamide], the GI50 in test [1] (read-out: GI50 6a) was found to be 700 nM; in test [2] (read-out: GI50 6a) it was 220 nM; in test [3] (read-out: GI50 6a), 490 nM; in test [4] (read-out: GI50 6a) it was 470 nM; in test [5] (read-out: GI50 6a) it was 240 nM; in test [6] (read-out: GI50 6a) it was 710 nM. In addition, the 50% growth inhibitory concentration (GI50) in test [7] (read-out: GI50 6a) was 470 nM; in [8] (read-out: GI50 6a), 380 nM; in [9] (read-out: GI50 6a) it was 560 nM; in test [10] (read-out: GI50 6a), 820 nM; in test [11] (read-out: GI50 6a) it was 490 nM; in test [12] (read-out: GI50 6a), 650 nM. The GI50 in [13] (read-out: GI50 6a) was determined as 610 nM; in [14] (read-out: GI50 6a), 320 nM; in [15] (read-out: GI50 6a) it was 350 nM; in test [16] (read-out: GI50 6a), 1850 nM; in test [17] (read-out: GI50 6a), 930 nM.

Take `N=C(NO)C1=C(N)Oc2c(ccc3ccccc23)C1c1ccccc1` (stereo not shown) [5a, 2-Amino-4-phenyl-N-hydroxy-4H-benzo[h]chromene-3-carboxamidine]: the GI50 in test [1] (read-out: GI50 5a) stood at 530 nM; in test [2] (read-out: GI50 5a), 60 nM; in test [3] (read-out: GI50 5a), 560 nM; in test [4] (read-out: GI50 5a) it was 100 nM; in [5] (read-out: GI50 5a) it was 1990 nM; in [6] (read-out: GI50 5a), 50 nM. Moreover, the GI50 in [7] (read-out: GI50 5a) turned out to be 210 nM; in [8] (read-out: GI50 5a), 480 nM; in [9] (read-out: GI50 5a) it was 130 nM; in test [10] (read-out: GI50 5a), 660 nM; in test [11] (read-out: GI50 5a), 430 nM; in test [12] (read-out: GI50 5a), 28700 nM. Further, the GI50 was found to be 820 nM in test [13] (read-out: GI50 5a); 60 nM in test [14] (read-out: GI50 5a); 210 nM in [15] (read-out: GI50 5a); 8010 nM in test [16] (read-out: GI50 5a); 1320 nM in [17] (read-out: GI50 5a).
